These results are taken from patent US6369069B1 (Aventis Pharma Deutschland GmbH, priority 1998, dated 2002).

The structures appear in SMILES notation.

In the assay the test system is Na^+-dependent Cl^−/HCO3^− exchanger (NCBE). Put plainly: Inhibition of the Na+-dependent Cl−/HCO3− exchanger (NCBE) in human endothelial cells (pHi recovery, BCECF fluorescence, FLIPR). It is filed as cell-based. The settings on record: 10 μM. A digest of the protocol: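 Fluorescence rise (FLIPR, 2 min, 35 °C) tracked pHi recovery in acid-loaded, BCECF-loaded ECV-304 cells after adding Na+- and HCO3−-containing buffer with 50 μM HOE 642 and graded compound doses. Inhibition was calculated against full-recovery and bicarbonate-free no-recovery controls.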

Take `N#CNS(=O)(=O)c1ccccc1-c1ccc(CN(Cc2ccc(Cl)cc2Cl)C(=O)Cc2ccc(O)cc2)cc1` [Example 283]: the “Residual activity % of the NCBE at 10 μM” value came out at 80.0%. Under `N#CNS(=O)(=O)c1ccccc1-c1ccc(CN(Cc2cccc3ccccc23)C(=O)Cc2ccc(O)cc2)cc1` [Example 284] stands 52.9%; under `N#CNS(=O)(=O)c1ccccc1-c1ccc(CN(Cc2cccc(Cl)c2)C(=O)Cc2ccc(O)cc2)cc1` [Example 285], 58.8%; under `COC(=O)C(c1ccccc1)N(Cc1ccc(-c2ccccc2S(=O)(=O)NC#N)cc1)C(=O)CCc1cccs1` (stereo not shown) [Example 286], 68.8%. Take `CC(C)(C)OC(=O)C(c1ccccc1)N(Cc1ccc(-c2ccccc2S(=O)(=O)NC#N)cc1)C(=O)CCc1cccs1` (stereo not shown) [Example 287]: the “Residual activity % of the NCBE at 10 μM” value is on record as 51.1%. Next, `N#CNS(=O)(=O)c1ccccc1-c1ccc(CN(Cc2ccc(Cl)cc2Cl)C(=O)CCc2cccs2)cc1` [Example 288]: 63.1%; `N#CNS(=O)(=O)c1ccccc1-c1ccc(CN(Cc2cccc3ccccc23)C(=O)CCc2cccs2)cc1` [Example 289]: 39.2%. Next, `N#CNS(=O)(=O)c1ccccc1-c1ccc(CN(Cc2cccc(Cl)c2)C(=O)CCc2cccs2)cc1` [Example 290]: 45.8%; `N#CNS(=O)(=O)c1ccccc1-c1ccc(CN(Cc2ccccc2Cl)C(=O)Cc2ccccc2Cl)cc1` [Example 291]: 23.7%. In the case of `N#CNS(=O)(=O)c1ccccc1-c1ccc(CN(Cc2cccc3ccccc23)C(=O)Cc2ccccc2Cl)cc1` [Example 293], the “Residual activity % of the NCBE at 10 μM” value is 55.1%. Next, `N#CNS(=O)(=O)c1ccccc1-c1ccc(CN(CCc2ccc(S(N)(=O)=O)cc2)C(=O)Cc2ccccc2Cl)cc1` [Example 294]: 82.7%; `N#CNS(=O)(=O)c1ccccc1-c1ccc(CN(Cc2cccs2)C(=O)NCc2ccccc2)cc1` [Example 295]: 8.0%. Next, `N#CNS(=O)(=O)c1ccccc1-c1ccc(CN(Cc2cccs2)C(=O)NC2CCCCC2)cc1` [Example 296]: 31.7%; `N#CNS(=O)(=O)c1ccccc1-c1ccc(CN(Cc2ccccc2)C(=O)Nc2c(F)cccc2F)cc1` [Example 297]: 80.4%. For the compound `CC(C)NC(=O)N(Cc1ccccc1)Cc1ccc(-c2ccccc2S(=O)(=O)NC#N)cc1` [Example 298], the “Residual activity % of the NCBE at 10 μM” value is 74.7%. For `N#CNS(=O)(=O)c1ccccc1-c1ccc(CN(Cc2ccccc2)C(=O)NCc2ccccc2)cc1` [Example 299], the “Residual activity % of the NCBE at 10 μM” value amounted to 48.6%. With `N#CNS(=O)(=O)c1ccccc1-c1ccc(CN(Cc2ccccc2)C(=O)NC2CCCCC2)cc1` [Example 300], the “Residual activity % of the NCBE at 10 μM” value is reported as 29.4%. Next, `COc1cccc(CN(Cc2ccc(-c3ccccc3S(=O)(=O)NC#N)cc2)C(=O)Nc2c(F)cccc2F)c1` [Example 301]: 87.9%. Regarding `COc1cccc(CN(Cc2ccc(-c3ccccc3S(=O)(=O)NC#N)cc2)C(=O)NC(C)C)c1` [Example 302], the “Residual activity % of the NCBE at 10 μM” value is 80.4%. Next, `COc1cccc(CN(Cc2ccc(-c3ccccc3S(=O)(=O)NC#N)cc2)C(=O)NCc2ccccc2)c1` [Example 303]: 65.8%. Next, `COc1cccc(CN(Cc2ccc(-c3ccccc3S(=O)(=O)NC#N)cc2)C(=O)NC2CCCCC2)c1` [Example 304]: 56.0%; `N#CNS(=O)(=O)c1ccccc1-c1ccc(CN(Cc2cccc(Cl)c2)C(=O)Nc2c(F)cccc2F)cc1` [Example 305]: 84.9%. Under `CC(C)NC(=O)N(Cc1ccc(-c2ccccc2S(=O)(=O)NC#N)cc1)Cc1cccc(Cl)c1` [Example 306] stands 90.2%; under `N#CNS(=O)(=O)c1ccccc1-c1ccc(CN(Cc2cccc(Cl)c2)C(=O)NCc2ccccc2)cc1` [Example 307], 55.8%.

For the compound `N#CNS(=O)(=O)c1ccccc1-c1ccc(CN(Cc2cccc(Cl)c2)C(=O)NC2CCCCC2)cc1` [Example 308], the “Residual activity % of the NCBE at 10 μM” value is listed as 32.1%. Regarding `N#CNS(=O)(=O)c1ccccc1-c1ccc(CN(Cc2cccc(Cl)c2Cl)C(=O)Cc2cccs2)cc1` [Example 309], the “Residual activity % of the NCBE at 10 μM” value came to 88.9%. Next, `N#CNS(=O)(=O)c1ccccc1-c1ccc(CN(Cc2ccc3ccccc3c2)C(=O)Cc2cccs2)cc1` [Example 310]: 47.7%. Under `Cc1cccc(CN(Cc2ccc(-c3ccccc3S(=O)(=O)NC#N)cc2)C(=O)Cc2cccs2)c1` [Example 311] stands 10.4%; under `Cc1ccccc1CN(Cc1ccc(-c2ccccc2S(=O)(=O)NC#N)cc1)C(=O)Cc1cccs1` [Example 312], 12.5%; under `CC(C)=CCCC(C)=CCN(Cc1ccc(-c2ccccc2S(=O)(=O)NC#N)cc1)C(=O)Cc1cccs1` [Example 313], 17.2%. Regarding `N#CNS(=O)(=O)c1ccccc1-c1ccc(CN(C(=O)Cc2cccs2)C2CCc3ccccc32)cc1` (stereo not shown) [Example 314], the “Residual activity % of the NCBE at 10 μM” value came to 14.4%. Next, `N#CNS(=O)(=O)c1ccccc1-c1ccc(CN(C(=O)Cc2cccs2)C2CCCc3ccccc32)cc1` (stereo not shown) [Example 315]: 23.5%. Under `N#CNS(=O)(=O)c1ccccc1-c1ccc(CN(Cc2ccccc2F)C(=O)Cc2cccs2)cc1` [Example 316] stands 14.4%; under `N#CNS(=O)(=O)c1ccccc1-c1ccc(CN(Cc2cccc(-c3ccccc3)c2)C(=O)Cc2cccs2)cc1` [Example 317], 14.5%; under `N#CNS(=O)(=O)c1ccccc1-c1ccc(CN(CC2CCCO2)C(=O)Cc2cccs2)cc1` (stereo not shown) [Example 318], 16.4%. Under `COCCC(=O)N(Cc1ccc(-c2ccccc2S(=O)(=O)NC#N)cc1)Cc1cccc(Cl)c1Cl` [Example 319] stands 38.0%; under `COCCC(=O)N(Cc1ccc(-c2ccccc2S(=O)(=O)NC#N)cc1)Cc1ccc2ccccc2c1` [Example 320], 38.8%. Regarding `COCCC(=O)N(Cc1ccc(-c2ccccc2S(=O)(=O)NC#N)cc1)Cc1ccccc1C` [Example 322], the “Residual activity % of the NCBE at 10 μM” value amounted to 66.3%. Next, `COCCC(=O)N(CC=C(C)CCC=C(C)C)Cc1ccc(-c2ccccc2S(=O)(=O)NC#N)cc1` [Example 323]: 23.6%. Under `COCCC(=O)N(Cc1ccc(-c2ccccc2S(=O)(=O)NC#N)cc1)C1CCc2ccccc21` (stereo not shown) [Example 324] stands 60.5%; under `COCCC(=O)N(Cc1ccc(-c2ccccc2S(=O)(=O)NC#N)cc1)C1CCCc2ccccc21` (stereo not shown) [Example 325], 33.8%; under `COCCC(=O)N(Cc1ccc(-c2ccccc2S(=O)(=O)NC#N)cc1)Cc1ccccc1F` [Example 326], 25.6%.

Take `COCCC(=O)N(Cc1ccc(-c2ccccc2S(=O)(=O)NC#N)cc1)Cc1cccc(-c2ccccc2)c1` [Example 327]: the “Residual activity % of the NCBE at 10 μM” value came to 17.4%. Under `COCCC(=O)N(Cc1ccc(-c2ccccc2S(=O)(=O)NC#N)cc1)CC1CCCO1` (stereo not shown) [Example 328] stands 87.0%; under `COc1ccccc1C(=O)N(Cc1ccc(-c2ccccc2S(=O)(=O)NC#N)cc1)Cc1cccc(Cl)c1Cl` [Example 329], 25.7%. Under `COc1ccccc1C(=O)N(Cc1ccc(-c2ccccc2S(=O)(=O)NC#N)cc1)Cc1ccc2ccccc2c1` [Example 330] stands 14.4%; under `COc1ccccc1C(=O)N(Cc1ccc(-c2ccccc2S(=O)(=O)NC#N)cc1)Cc1cccc(C)c1` [Example 331], 37.6%; under `COc1ccccc1C(=O)N(Cc1ccc(-c2ccccc2S(=O)(=O)NC#N)cc1)Cc1ccccc1C` [Example 332], 31.7%. For the compound `COc1ccccc1C(=O)N(CC=C(C)CCC=C(C)C)Cc1ccc(-c2ccccc2S(=O)(=O)NC#N)cc1` [Example 333], the “Residual activity % of the NCBE at 10 μM” value amounted to 22.3%. Next, `COc1ccccc1C(=O)N(Cc1ccc(-c2ccccc2S(=O)(=O)NC#N)cc1)C1CCCc2ccccc21` (stereo not shown) [Example 335]: 79.6%. As for `COc1ccccc1C(=O)N(Cc1ccc(-c2ccccc2S(=O)(=O)NC#N)cc1)Cc1ccccc1F` [Example 336], the “Residual activity % of the NCBE at 10 μM” value is 58.1%. Next, `COc1ccccc1C(=O)N(Cc1ccc(-c2ccccc2S(=O)(=O)NC#N)cc1)Cc1cccc(-c2ccccc2)c1` [Example 337]: 51.2%; `COc1ccccc1C(=O)N(Cc1ccc(-c2ccccc2S(=O)(=O)NC#N)cc1)CC1CCCO1` (stereo not shown) [Example 338]: 50.7%; `N#CNS(=O)(=O)c1ccccc1-c1ccc(CN(Cc2cccc(Cl)c2Cl)C(=O)CCOc2ccccc2)cc1` [Example 339]: 46.8%. On to `N#CNS(=O)(=O)c1ccccc1-c1ccc(CN(Cc2ccc3ccccc3c2)C(=O)CCOc2ccccc2)cc1` [Example 340], for which the “Residual activity % of the NCBE at 10 μM” value was found to be 37.2%. Regarding `Cc1cccc(CN(Cc2ccc(-c3ccccc3S(=O)(=O)NC#N)cc2)C(=O)CCOc2ccccc2)c1` [Example 341], the “Residual activity % of the NCBE at 10 μM” value amounted to 44.6%. Under `Cc1ccccc1CN(Cc1ccc(-c2ccccc2S(=O)(=O)NC#N)cc1)C(=O)CCOc1ccccc1` [Example 342] stands 85.3%; under `CC(C)=CCCC(C)=CCN(Cc1ccc(-c2ccccc2S(=O)(=O)NC#N)cc1)C(=O)CCOc1ccccc1` [Example 343], 48.1%.
